Measurements published in patent US20200253864A1, “VOLATILE ANESTHETIC COMPOSITIONS COMPRISING EXTRACTIVE SOLVENTS FOR REGIONAL ANESTHESIA AND/OR PAIN RELIEF” (The Board of Regents of the University of Texas System, priority 2008, published 2020).
Values joined by “and” are separate entries in the source; they are usually repeats but may differ in a detail not shown here. Identical values can stand only once.

How the values were obtained:
[1] = Stability/volatility: weighing remaining isoflurane in uncapped vials over time; format: physicochemical; settings: for Effect of the solvent on the volatility of isoflurane: solution versus pure isoflurane (Table 6)
Method: The stability of isoflurane in the compositions was determined in two ways. Firstly, the compositions were examined for the presence of phase separation at the macroscopic level. Secondly, isoflurane content of the compositions were determined by weighing the remaining isoflurane in the composition when they were left uncapped over time. […] The other vials received varying amounts of isoflurane. They were left uncapped in the hood. Over time (0, 0.4, 1 , 16 , 24 h), the vials were weighed to see if the isoflurane stayed in the composition or evaporated. The amount evaporated over time in the vehicle was subtracted from that in the isoflurane composition, and therefore the amount of isoflurane in the vehicle was roughly determined at each time point.
Pure form of isoflurane is a volatile agent. In order to determine the volatility of isoflurane, two vials received the indicated amounts of pure form of isoflurane. The vials were placed in the chemical fume hood and left uncapped. The vials were weighed in the indicated times to determine the amount of evaporated isoflurane. As it is shown in the table below 0.7893g isoflurane was evaporated within 3 hrs whereas 3.4825 g isoflurane took approximately 8 hrs to evaporate completely. These amounts of isoflurane are similar to the amounts of isoflurane that were used to prepare isoflurane (iso) compositions as shown below.

[2] = test system: rats; assay: Plantar Heat Stimulation Test (paw withdrawal latency) after subcutaneous injection into hindpaw; format: in vivo, rat; settings: for Antinociceptive effect, treated versus untreated (contralateral) paw: 100 μl subcutaneously into hindpaw (pure isoflurane n=4; 2% lidocaine n=3), P<0.05
Method: Intraplanar Administration of Isoflurane: 100 μl of pure form Isoflurane or 100 μl of 2% Lidocaine was injected subcutaneously into the planar surface of the hindpaw. Every rat, the contralateral hindpaw, served as its own control.
Measurement of Paw Withdrawal Latency: Rats are tested for response to thermal stimulation using radiant heat (Planar Analgesia Instrument, UgoBasile, Italy). After the rats acclimate for 15 min under the acrylic boxes that allow minimal movement, the heat source was positioned beneath the mid-plantar surface of the hind paw. Withdrawal latency is defined as the period of time from the beginning of the thermal stimulation to the brisk withdrawal of the hind paw. To avoid tissue damage, a cutoff time of 22s was set. Thermal stimulation was applied three times to each hind paw at an inter-stimulus interval of 3-5 min. Thermalnociceptive threshold was assessed before and after the treatment. An increase in the withdrawal threshold in the treated paw compared to the control paw is assessed as analgesic activity of the tested formulation.
Statistical Analysis: For statistical comparison, student paired t-test analysis was used. Differences were considered significant at P<0.05.

[3] = test system: Sprague-Dawley rats; assay: Intrathecal injection of isoflurane or sevoflurane, hotplate test (thermal withdrawal latency); format: in vivo, rat; settings: for Thermal withdrawal latency, Average (per rat): average of three tests, both paws; for Thermal withdrawal latency, Group Average: four rats; for Thermal withdrawal latency, Test 1 Left / Thermal withdrawal latency, Test 1 Right / Thermal withdrawal latency, Test 2 Left / Thermal withdrawal latency, Test 2 Right / Thermal withdrawal latency, Test 3 Left / Thermal withdrawal latency, Test 3 Right: individual rats, cutoff 25 seconds; for Adverse effects / Full recovery from the intrathecal injection (return to thermal latency baseline): intrathecal 2 microliters, rats; for Analgesic effect: intrathecally delivered dose of 2 microliters
Method: This study was designed to evaluate efficacy of direct intrathecal injection of anesthetic agent gases in reducing pain and providing analgesia. The study was conducted over a one (1) month period using anesthetic gases isoflurane and sevoflurane injected directly intrathecally or dissolved in saline as shown in the studies below. The subject animal used was the rat, since the rat has a well-established model of pain/analgesia testing. In particular, Sprague-Dawley rats weighing over 350gm were used. The rats were anesthetized with pentobarbital (50mg/kg), and the anesthetic depth of the animals was determined by corneal reflex and paw withdrawal reflex to a noxious stimulus.
[…]. A midline surgical dissection of the posterior neck muscles was performed to obtain access to the occipito-atlantoid membrane. This membrane was identified and then dissected. A sterile polyethylene catheter was introduced in the subarachnoid space until the lumbar enlargement of the spinal cord (approximately 7-8 cm measured in each animal). The surgical wound was closed, first suturing the neck muscles with 3-0 silk sutures and then closing the skin incision with staples.
After the surgery, the rats were moved to their cages and a radiant lamp was placed over the cages so that the rats would not undergo anesthetic-induced hypothermia. The rats were continuously monitored from the end of the surgery until they were fully awake. Rats showing any motor impairment after surgery were euthanized.
On the fifth day after surgery, those rats without wound infection or motor dysfunction were transported to the pain behavioral lab to enter the intrathecal study with volatile anesthetics. Twelve rats were selected for the study. All these rats had intrathecal catheters.
Isoflurane (1-chloro-2,2,2-trifluoroethyl difluoromethyl ether) and sevoflurane (fluoromethyl 2,2,2-trifluoro-1-(trifluoromethyl) ethyl ether) were used as the halogenated ether compounds. Both of these are halogenated volatile anesthetic agents, with isoflurane manufactured by Baxter and sevoflurane manufactured by Abbott Laboratories. The 12 rats were divided into 3 groups of four rats each for study A and B.
In the first group, 2 microliters of preservative-free normal saline was injected via the intrathecal catheter into each rat. This catheter was then flushed with preservative-free normal saline. Pain behavioral testing on this group was then performed.
In the second group, 2 microliters of isoflurane was injected via the intrathecal catheter into each rat. This catheter was also flushed with preservative-free normal saline. This group was then subjected to pain behavioral testing.
In the third group, 2 microliters of sevoflurane was injected via the intrathecal catheter into each rat. This catheter was also flushed with preservative-free normal saline. This group was then subjected to pain behavioral testing.
A “hotplate” behavioral test was used to evaluate pain perception and analgesia. The pain behavioral testing model used in these studies have been well established by Tony Yaksh. (See, e.g. Chaplan et al., 1994; Yaksh et al., 2001; Kim and Chung, 1992; Sorkin et al., 2001). This test involves determining how quickly a rat will withdraw its hind paw in response to a noxious stimulus such as a radiant heat source placed directly underneath its paw. This time for withdrawal is known as “thermal withdrawal latency”.
Rats were transferred for testing onto a modified Hargreaves apparatus with a heated glass plate maintained at 25° C. (see Hargreaves et al., 1988). A focused projection bulb below the plate was aimed at the mid-plantar surface of the paw. A photodiode-activated timer measured the withdrawal latency, and a cutoff time of 25 seconds was used to prevent tissue damage. Thermal withdrawal latency to radiant heat was measured at 5 minutes and 30 minutes after each intrathecal injection. Each paw was tested three times, and the results were averaged. […]

[4] = 100 μl subcutaneously into hindpaw
[5] = 5 minutes after 2 microliters intrathecal
[6] = 5 minutes after 2 microliters intrathecal, saline control group 8.33
[7] = 30 minutes after 2 microliters intrathecal
[8] = 30 minutes after 2 microliters intrathecal, saline control group 8.40

| Structure (SMILES) | Effect of the solvent on the volatility of isoflurane [1] | Start of the antinociceptive effect [2, 4] | Antinociceptive effect, treated versus untreated (contralateral) paw [2] | Thermal withdrawal latency, Average (per rat) [3, 5] | Thermal withdrawal latency, Group Average [3, 6] | Thermal withdrawal latency, Test 1 Left [3, 5] | Thermal withdrawal latency, Test 1 Right [3, 5] | Thermal withdrawal latency, Test 2 Left [3, 5] | Thermal withdrawal latency, Test 2 Right [3, 5] | Thermal withdrawal latency, Test 3 Left [3, 5] | Thermal withdrawal latency, Test 3 Right [3, 5] | Thermal withdrawal latency, Average (per rat) [3, 7] | Thermal withdrawal latency, Group Average [3, 8] | Thermal withdrawal latency, Test 1 Left [3, 7] | Thermal withdrawal latency, Test 1 Right [3, 7] | Thermal withdrawal latency, Test 2 Left [3, 7] | Thermal withdrawal latency, Test 2 Right [3, 7] | Thermal withdrawal latency, Test 3 Left [3, 7] | Thermal withdrawal latency, Test 3 Right [3, 7] | Adverse effects [3] | also measured |
| --- | --- | --- | --- | --- | --- | --- | --- | --- | --- | --- | --- | --- | --- | --- | --- | --- | --- | --- | --- | --- | --- |
| CN1CCCC1=O [NMP, N-Methyl-2-pyrrolidone] | reduced the volatility of isoflurane |  |  |  |  |  |  |  |  |  |  |  |  |  |  |  |  |  |  |  |  |
| CCN(CC)CC(=O)Nc1c(C)cccc1C [lidocaine] |  | 5 min | significant antinociceptive effect |  |  |  |  |  |  |  |  |  |  |  |  |  |  |  |  |  | Peak of the antinociceptive effect [2, 4]: 15 min; Return of the antinociceptive effect to baseline levels [2, 4]: 45 min |
| FC(F)OC(Cl)C(F)(F)F (stereo not drawn) [Isoflurane, 1-chloro-2,2,2-trifluoroethyl difluoromethyl ether] |  | 25 min | significant (P<0.05) antinociceptive effect | 19.25 s and 18.21 s and 18.63 s and 17.95 s | 18.51 s | 17.23 s and 19.24 s and 18.11 s and 19.71 s | 19.81 s and 17.19 s and 19.20 s and 20.31 s | 18.91 s and 17.65 s and 19.80 s and 17.18 s | 20.38 s and 15.88 s and 17.90 s and 18.34 s | 18.82 s and 20.72 s and 20.07 s and 16.38 s | 20.34 s and 18.59 s and 16.71 s and 16.75 s | 9.48 s and 8.93 s and 10.52 s and 9.21 s | 9.53 s | 9.12 s and 6.35 s and 8.37 s and 10.27 s | 9.87 s and 9.08 s and 6.32 s and 9.41 s | 9.02 s and 8.22 s and 8.45 s and 7.04 s | 10.59 s and 7.81 s and 9.48 s and 6.76 s | 9.77 s and 11.62 s and 10.48 s and 10.32 s | 8.54 s and 10.49 s and 11.03 s and 7.88 s | None of the rats in the study experienced adverse effects | Full recovery from the intrathecal injection (return to thermal latency baseline) [3]: 30 min; Analgesic effect [3]: analgesic effect; % remaining iso, 0 h ([1]; 0 h): 100%; Time for isoflurane to evaporate ([1]; 0.7893 g pure isoflurane, uncapped): ≤ 3 h; Time for isoflurane to evaporate completely ([1]; 3.4825 g pure isoflurane, uncapped): approximately 8 hrs; % remaining iso, 5 h ([1]; 5 h): 38%; % remaining iso, 7 h ([1]; 7 h): 13%; % remaining iso, 8 h ([1]; 8 h): 3%; Duration of the antinociceptive effect [2, 4]: continued throughout the experiment |
| FCOC(C(F)(F)F)C(F)(F)F [Sevoflurane, fluoromethyl 2,2,2-trifluoro-1-(trifluoromethyl) ethyl ether] |  |  |  | 14.65 s and 13.82 s and 13.14 s and 12.98 s | 13.65 s | 14.90 s and 13.38 s and 12.34 s and 11.83 s | 13.81 s and 17.19 s and 14.98 s and 10.31 s | 15.11 s and 12.31 s and 11.03 s and 12.66 s | 13.23 s and 14.29 s and 13.93 s and 13.20 s | 14.83 s and 12.01 s and 14.16 s and 12.31 s | 16.03 s and 13.75 s and 12.37 s and 17.59 s | 8.61 s and 8.35 s and 8.89 s and 9.54 s | 8.84 s | 8.54 s and 6.87 s and 8.44 s and 10.93 s | 9.23 s and 7.38 s and 10.05 s and 9.55 s | 8.29 s and 7.99 s and 11.74 s and 6.68 s | 7.30 s and 8.92 s and 9.32 s and 8.67 s | 8.87 s and 8.10 s and 6.13 s and 12.11 s | 9.43 s and 10.83 s and 7.66 s and 9.27 s | None of the rats in the study experienced adverse effects | Full recovery from the intrathecal injection (return to thermal latency baseline) [3]: 30 min; Analgesic effect [3]: analgesic effect |
| CC(O)CO (stereo not drawn) [propylene glycol] | reduced the volatility of isoflurane |  |  |  |  |  |  |  |  |  |  |  |  |  |  |  |  |  |  |  | Reduction of isoflurane volatility compared with NMP ([1]; Table 10 versus Table 8): not as good as NMP |
